Data taken from ChEMBL document CHEMBL4261644, “Novel Symmetrical Benzazolyl Derivatives Endowed with Potent Anti-Heparanase Activity” (J Med Chem, 2018).

biological target: T1, Heparanase (Homo sapiens, UniProt Q9Y251); assay: Inhibition of recombinant HPSE (unknown origin) using fondaparinux as substrate incubated for 3 hrs in absence of light by WST1 assay; conditions: not given
T1 sequence (Q9Y251 whole entry): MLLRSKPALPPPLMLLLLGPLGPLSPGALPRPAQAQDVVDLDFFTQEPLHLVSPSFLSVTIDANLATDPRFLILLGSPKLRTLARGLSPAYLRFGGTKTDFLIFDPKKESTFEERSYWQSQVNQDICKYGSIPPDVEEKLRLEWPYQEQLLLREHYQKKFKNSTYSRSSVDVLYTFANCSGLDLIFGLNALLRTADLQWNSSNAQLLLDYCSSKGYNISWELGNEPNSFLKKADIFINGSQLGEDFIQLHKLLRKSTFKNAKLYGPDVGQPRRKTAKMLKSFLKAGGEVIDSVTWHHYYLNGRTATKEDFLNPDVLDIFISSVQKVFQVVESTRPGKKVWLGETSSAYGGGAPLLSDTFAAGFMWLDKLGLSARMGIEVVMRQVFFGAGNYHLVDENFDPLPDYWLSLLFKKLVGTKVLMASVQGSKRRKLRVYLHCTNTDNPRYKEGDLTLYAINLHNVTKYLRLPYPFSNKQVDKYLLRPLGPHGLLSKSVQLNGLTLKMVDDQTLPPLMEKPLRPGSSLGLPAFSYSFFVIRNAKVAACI

Row | Structure (SMILES) | IC50 [nM]
1 | O=C(Cc1ccc2[nH]c(-c3ccc(NC(=O)Nc4ccc(-c5nc6cc(CC(=O)NCB(O)O)ccc6[nH]5)cc4F)c(F)c3)nc2c1)NCB(O)O | > 10000
2 | O=C(Nc1ccc(C(=O)Nc2cccc(C(=O)O)c2)cc1)Nc1ccc(C(=O)Nc2cccc(C(=O)O)c2)cc1 | 9170
3 | O=C(O)Cc1cccc(NC(=O)c2ccc(NC(=O)Nc3ccc(C(=O)Nc4cccc(CC(=O)O)c4)cc3)cc2)c1 | 1760
4 | O=C(O)Cc1ccc2oc(N3CCC(NC(=O)NC4CCN(c5nc6cc(CC(=O)O)ccc6o5)CC4)CC3)nc2c1 | > 10000
5 | O=C(O)Cc1cccc(NC(=O)c2ccc(CC(O)Cc3ccc(C(=O)Nc4cccc(CC(=O)O)c4)cc3)cc2)c1 | > 10000
6 | O=C(Cc1ccc2[nH]c(-c3ccc(NC(=O)Nc4ccc(-c5nc6cc(CC(=O)NC(Cc7ccccc7)C(=O)O)ccc6[nH]5)cc4F)c(F)c3)nc2c1)NC(Cc1ccccc1)C(=O)O (stereo not drawn) | 820
7 | O=C(O)Cc1cccc(NC(=O)c2ccc(NC(=S)Nc3ccc(C(=O)Nc4cccc(CC(=O)O)c4)cc3F)c(F)c2)c1 | 2610
8 | O=C(O)Cc1ccc2oc(-c3ccc(NC(=O)Nc4ccc(-c5nc6cc(CC(=O)O)ccc6o5)cc4)cc3)nc2c1 | 3200
9 | O=C(O)Cc1ccc(O)c(NC(=O)c2ccc(NC(=O)Nc3ccc(C(=O)Nc4cc(CC(=O)O)ccc4O)cc3)cc2)c1 | 2730
10 | O=C(O)Cc1ccc2oc(-c3ccc(NC(=S)Nc4ccc(-c5nc6cc(CC(=O)O)ccc6o5)cc4)cc3)nc2c1 | 1810
11 | O=C(O)Cc1cccc(NC(=O)c2ccc(CC(=O)Cc3ccc(C(=O)Nc4cccc(CC(=O)O)c4)cc3)cc2)c1 | > 10000

Further lines, results first:

Row | IC50 [nM] | Structure (SMILES)
12 | > 10000 | CC(C)CCNC(=O)Cc1ccc2oc(-c3ccc(NC(=O)Nc4ccc(-c5nc6cc(CC(=O)NCCC(C)C)ccc6o5)cc4F)c(F)c3)nc2c1
13 | 720 | O=C(Cc1ccc2oc(-c3ccc(NC(=O)Nc4ccc(-c5nc6cc(CC(=O)NC(Cc7ccccc7)C(=O)O)ccc6o5)cc4F)c(F)c3)nc2c1)NC(Cc1ccccc1)C(=O)O (stereo not drawn)
14 | 980 | O=C(O)Cc1ccc2[nH]c(-c3ccc(NC(=O)Nc4ccc(-c5nc6cc(CC(=O)O)ccc6[nH]5)cc4F)c(F)c3)nc2c1
15 | 370 | CC(NC(=O)Cc1ccc2oc(-c3ccc(NC(=O)Nc4ccc(-c5nc6cc(CC(=O)NC(C)C(=O)O)ccc6o5)cc4F)c(F)c3)nc2c1)C(=O)O (stereo not drawn)
16 | 1400 | O=C(O)Cc1ccc2oc(-c3ccc(NC(=S)Nc4ccc(-c5nc6cc(CC(=O)O)ccc6o5)cc4F)c(F)c3)nc2c1

system: HT-1080; assay: Antiproliferative activity against human HT1080 cells after 72 hrs by SRB assay; assay type: cell-based; conditions: ht-1080

Row | IC50 | Structure (SMILES)
17 | Not Active | O=C(Cc1ccc2oc(-c3ccc(NC(=O)Nc4ccc(-c5nc6cc(CC(=O)NC(Cc7ccccc7)C(=O)O)ccc6o5)cc4F)c(F)c3)nc2c1)NC(Cc1ccccc1)C(=O)O (stereo not drawn)
18 | Not Active | O=C(O)Cc1ccc2oc(-c3ccc(NC(=O)Nc4ccc(-c5nc6cc(CC(=O)O)ccc6o5)cc4)cc3)nc2c1
19 | Not Active | CC(NC(=O)Cc1ccc2oc(-c3ccc(NC(=O)Nc4ccc(-c5nc6cc(CC(=O)NC(C)C(=O)O)ccc6o5)cc4F)c(F)c3)nc2c1)C(=O)O (stereo not drawn)

system: U-87 MG; assay: Antiproliferative activity against human U87MG cells after 72 hrs by SRB assay; assay type: cell-based, U-87MG ATCC; conditions: u-87mg atcc

Row | IC50 | Structure (SMILES)
20 | Not Active | O=C(Cc1ccc2oc(-c3ccc(NC(=O)Nc4ccc(-c5nc6cc(CC(=O)NC(Cc7ccccc7)C(=O)O)ccc6o5)cc4F)c(F)c3)nc2c1)NC(Cc1ccccc1)C(=O)O (stereo not drawn)
21 | Not Active | O=C(O)Cc1ccc2oc(-c3ccc(NC(=O)Nc4ccc(-c5nc6cc(CC(=O)O)ccc6o5)cc4)cc3)nc2c1
22 | Not Active | CC(NC(=O)Cc1ccc2oc(-c3ccc(NC(=O)Nc4ccc(-c5nc6cc(CC(=O)NC(C)C(=O)O)ccc6o5)cc4F)c(F)c3)nc2c1)C(=O)O (stereo not drawn)

system: U2OS; assay: Antiproliferative activity against human U2OS cells after 72 hrs by SRB assay; assay type: cell-based; conditions: u2os

Row | IC50 | Structure (SMILES)
23 | Not Active | O=C(Cc1ccc2oc(-c3ccc(NC(=O)Nc4ccc(-c5nc6cc(CC(=O)NC(Cc7ccccc7)C(=O)O)ccc6o5)cc4F)c(F)c3)nc2c1)NC(Cc1ccccc1)C(=O)O (stereo not drawn)
24 | Not Active | O=C(O)Cc1ccc2oc(-c3ccc(NC(=O)Nc4ccc(-c5nc6cc(CC(=O)O)ccc6o5)cc4)cc3)nc2c1
25 | Not Active | CC(NC(=O)Cc1ccc2oc(-c3ccc(NC(=O)Nc4ccc(-c5nc6cc(CC(=O)NC(C)C(=O)O)ccc6o5)cc4F)c(F)c3)nc2c1)C(=O)O (stereo not drawn)

system: HT-1080; assay: Anti-invasive activity in human HT1080 cells assessed as reduction in invasive potential at 10 uM after 24 hrs by matrigel invasion assay relative to control; assay type: functional; conditions: HT-1080, 24 h

Row | Structure (SMILES) | inhibition at 10 µM [%]
26 | CC(NC(=O)Cc1ccc2oc(-c3ccc(NC(=O)Nc4ccc(-c5nc6cc(CC(=O)NC(C)C(=O)O)ccc6o5)cc4F)c(F)c3)nc2c1)C(=O)O (stereo not drawn) | < 50

system: U-87 MG; assay: Anti-invasive activity in human U87MG cells assessed as reduction in invasive potential at 10 uM after 24 hrs by matrigel invasion assay relative to control; assay type: functional, U-87MG ATCC; conditions: not given

Row | Structure (SMILES) | inhibition at 10 µM [%]
27 | CC(NC(=O)Cc1ccc2oc(-c3ccc(NC(=O)Nc4ccc(-c5nc6cc(CC(=O)NC(C)C(=O)O)ccc6o5)cc4F)c(F)c3)nc2c1)C(=O)O (stereo not drawn) | 50 to 90

system: U2OS; assay: Anti-invasive activity in human U2OS cells assessed as reduction in invasive potential at 10 uM after 24 hrs by matrigel invasion assay relative to control; assay type: functional; conditions: not given

Row | Structure (SMILES) | inhibition at 10 µM [%]
28 | CC(NC(=O)Cc1ccc2oc(-c3ccc(NC(=O)Nc4ccc(-c5nc6cc(CC(=O)NC(C)C(=O)O)ccc6o5)cc4F)c(F)c3)nc2c1)C(=O)O (stereo not drawn) | < 50
